Measured values from patent publication US9713602B1, “Method for facilitating the oxygen release of hemoglobin-based blood substitutes” (National Sun Yat-sen University, priority 2016, dated 2017).
Entries after “also recorded” stand apart in the source; their conditions may differ. One block for each compound: values may come before it.

How the values were obtained:
fetal hemoglobin (HbF) = fetal hemoglobin (HbF) (Homo sapiens, UniProt P69892+P69905); assay: oxygen equilibrium curves / P50 value of fetal hemoglobin (HbF); assay type: biochemical; settings: for shift of the oxygen equilibrium curve of fetal hemoglobin (HbF): 0.6-4.0 mM compound with 0.6 or 2.5 mM 2,3-BPG (FIG. 9, 10); for oxygen affinity modulating effect (increase of P50 value) on fetal hemoglobin compared with 2,3-BPG: FIG. 8, varying concentrations; for oxygen release efficiency of fetal hemoglobin (HbF) relative to normal hemoglobin: with 2,3-BPG (FIG. 9, 10)
Sequence of fetal hemoglobin (HbF) (P69905 2-142 limits assumed): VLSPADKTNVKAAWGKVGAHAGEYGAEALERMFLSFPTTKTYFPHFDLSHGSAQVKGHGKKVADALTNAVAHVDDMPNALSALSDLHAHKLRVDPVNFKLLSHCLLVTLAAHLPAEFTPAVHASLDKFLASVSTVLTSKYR
Sequence of fetal hemoglobin (HbF) (P69892 2-147 limits assumed): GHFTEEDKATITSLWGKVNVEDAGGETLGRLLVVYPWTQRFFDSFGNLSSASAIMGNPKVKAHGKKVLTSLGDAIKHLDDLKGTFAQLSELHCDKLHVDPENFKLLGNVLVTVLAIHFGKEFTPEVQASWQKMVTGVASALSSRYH

hemoglobin = hemoglobin (Homo sapiens, UniProt P68871+P69905); assay: oxygen equilibrium curves / P50 value of hemoglobin; assay type: biochemical; settings: for effect with 2,3-BPG in modulating hemoglobin allostery: FIG. 2
Sequence of hemoglobin (P69905 2-142 limits assumed): as the sequence (P69905 2-142 limits assumed) above
Sequence of hemoglobin (P68871 2-147 limits assumed): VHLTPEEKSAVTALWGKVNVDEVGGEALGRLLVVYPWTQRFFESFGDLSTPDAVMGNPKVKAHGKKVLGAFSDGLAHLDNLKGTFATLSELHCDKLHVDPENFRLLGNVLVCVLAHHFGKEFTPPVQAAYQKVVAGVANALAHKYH

oxygen release efficiency of hemoglobin (hemoglobin; 1.2 mM 2,3-BPG, PO2 20 mmHg): 40%
oxygen saturation fraction of hemoglobin (hemoglobin; 1.2 mM 2,3-BPG, PO2 20 mmHg (FIG. 7)): approximately 60%
oxygen saturation fraction of hemoglobin (hemoglobin; 12 mM 2,3-BPG, fixed oxygen partial pressure of 20 mmHg, 80% where no 2,3-BPG is present): 35%
oxygen release efficiency of hemoglobin (hemoglobin; 12 mM 2,3-BPG, oxygen partial pressure 20 mmHg, 20% without 2,3-BPG): 65%
P50 value of hemoglobin (hemoglobin; approximately 4 mM 2,3-BPG, no phthalide compound): 18.8 mmHg
oxygen release efficiency of normal cells (hemoglobin; varying concentrations of 2,3-BPG, PO2 of normal cells, from 20%): ~65%
oxygen saturation fraction of hemoglobin (hemoglobin; varying concentrations of 2,3-BPG, brain physiological PO2 (33.8±2.6 mmHg), from 90% (FIG. 4)): ~70%
oxygen release efficiency of hemoglobin (hemoglobin; varying concentrations of 2,3-BPG, brain physiological PO2, from 10%): 30%
Structure (SMILES): O=C(O)C(COP(=O)(O)O)OP(=O)(O)O (centres unmarked) [2,3-BPG, 2,3-bisphosphorglycerate]
modulating effect of 2,3-BPG on fetal hemoglobin (HbF) relative to normal hemoglobin (fetal hemoglobin (HbF)): not as effective as that on the normal hemoglobin

Structure (SMILES): CCC/C=C1\OC(=O)c2ccccc21 [Z-butylidenephthalide]
shift of the oxygen equilibrium curve of fetal hemoglobin (HbF) (fetal hemoglobin (HbF)): effectively shift the oxygen equilibrium curve for the fetal hemoglobin (HbF) to the right; also recorded: effectively shift the oxygen equilibrium curve of the fetal hemoglobin (HbF) to the right
oxygen affinity modulating effect (increase of P50 value) on fetal hemoglobin compared with 2,3-BPG (fetal hemoglobin (HbF)): stronger modulating effect than 2,3-BPG; also recorded: higher than that of 2,3-BPG
oxygen release efficiency of fetal hemoglobin (HbF) relative to normal hemoglobin (fetal hemoglobin (HbF)): achieve the same oxygen release efficiency as the normal hemoglobin

effect with 2,3-BPG in modulating hemoglobin allostery (hemoglobin): synergistic effect
Structure (SMILES): CCC/C=C1\OC(=O)C2=C1CCC=C2 [Z-ligustilide]
shift of the oxygen equilibrium curve of fetal hemoglobin (HbF) (fetal hemoglobin (HbF)): effectively shift the oxygen equilibrium curve for the fetal hemoglobin (HbF) to the right
oxygen affinity modulating effect (increase of P50 value) on fetal hemoglobin compared with 2,3-BPG (fetal hemoglobin (HbF)): stronger modulating effect than 2,3-BPG; also recorded: higher than that of 2,3-BPG
oxygen release efficiency of fetal hemoglobin (HbF) relative to normal hemoglobin (fetal hemoglobin (HbF)): achieve the same oxygen release efficiency as the normal hemoglobin

Structure (SMILES): CCC/C=C1\OC(=O)C2=C1CC[C@@H](O)[C@@H]2O [senkyunolide I]
effect with 2,3-BPG in modulating hemoglobin allostery (hemoglobin): synergistic effect
